# Values joined by “and” are separate entries in the source; they are usually repeats but may differ in a detail not shown here. Identical values can stand only once.
# How the values were obtained:
# [1] = tested on: APC ^min/J mice; format: in vivo; settings: 30 mg/kg oral every other day, 8 weeks
# Experimental: UniPR129, UniPR139 and UniPR1331 were tested in an animal model of intestinal tumorigenesis, based on the usage of APC ^min/J mice, which spontaneously develop multiple and large adenomas over intestinal tract due to a gene mutation.
# (§1) 5 weeks old C57BL/6J-APC ^min/J male mice were purchased from Jackson Laboratory (Bar Harbor, ME USA). Mice were weighted and randomly subdivided in four groups: • Control group: Oral administration of Methocel 0.5% every other day; • Three treatment groups: oral administration of UniPR129, UniPR139 or UniPR1331 30 mg/kg in Methocel 0.5% every other day.
# (§2) The experiment was carried out for 8 weeks and over this period the weight was monitored once a week. At the end of the experiment, all mice were sacrificed by carbon dioxide inhalation and blood samples were collected via intracardiac […] and used for evaluation of hematological parameters.
# Hematological and blood chemistry parameters were undergone to one-way ANOVA to compare control group to treatment groups.
# [2] = cited from earlier work
# [3] = tested on: adenomas in APC ^min/J mice; assay: Intestinal tumorigenesis model: number and diameter of adenomas (histological analysis); format: in vivo
# Experimental: UniPR129, UniPR139 and UniPR1331 were tested in an animal model of intestinal tumorigenesis, based on the usage of APC ^min/J mice, which spontaneously develop multiple and large adenomas over intestinal tract due to a gene mutation. […] Five weeks old mice have been treated with the three compounds at 30 mg/kg dose for 8 weeks every other day following previous observations. The weight of the mice has been monitored from the beginning of the treatment until the end of the study to follow the course of the disease and to detect potentially toxic effects of compounds.
# as §1, §2
# The whole intestine of all the mice was resected, washed with sterile PBS and fixed with 4% formalin. After 24 h, the intestine was longitudinally divided in 6 portions (1-duodenum, 2-jejunum, 3-ileum, 4-caecum, 5-colon, 6-rectum) and each portion was embedded in paraffin and sectioned at 5 μm with microtome (Leica). Slides were dried at 37 °C for 24 h, then deparaffinized in xylene, rehydrated with decreasing concentration of alcohol and stained with hematoxylin and eosin.
# Histological slides were examined with Nikon Eclipse E800 microscope (Nikon Corporation, Japan) and photographs of sections were taken at 2x with Camera Nikon DIGITAL SIGHT attached to the microscope. The observation of longitudinal sections of the small intestine allowed to determine the distribution and number of adenomatous lesions; four longitudinal sections have been prepared for each segment of small intestine. The microscopic images of the ileum have been subsequently analyzed, using the ImageJ software, to determine the diameter and area of each adenoma.
# [4] = of the total number of adenomas in the ileum section
smiles,measurement,setting,value
C[C@H](CCC(=O)N[C@H](CC(=O)O)Cc1c[nH]c2ccccc12)[C@H]1CC[C@H]2[C@@H]3CC[C@@H]4C[C@H](O)CC[C@]4(C)[C@H]3CC[C@]12C [UniPR129],tolerability,[1],well tolerated
same,ALT,"[1]; mean ± SD, n = 7",23.43 ± 3.78 UI
same,AST/GOT,"[1]; mean ± SD, n = 7",108.86 ± 47.11 UI
same,Basophils,"[1]; mean ± SD, n = 7",0.00 ± 0.00%
same,Creatinine,"[1]; mean ± SD, n = 7",0.22 ± 0.08 mg/dL
same,Eosinophils,"[1]; mean ± SD, n = 7",0.10 ± 0.10%
same,Glucose,"[1]; mean ± SD, n = 7",161.10 ± 21.18 mg/dL
same,Haematocrit,"[1]; mean ± SD, n = 7",26.69 ± 6.56%
same,Haemoglobin,"[1]; mean ± SD, n = 7",8.71 ± 2.15 g/dL
same,Lymphocytes,"[1]; mean ± SD, n = 7",93.29 ± 6.14%
same,Mean cellular Volume,"[1]; mean ± SD, n = 7",53.87 ± 2.62 fL
same,Mean platelet Volume,"[1]; mean ± SD, n = 7",4.91 ± 0.43 fL
same,Monocytes,"[1]; mean ± SD, n = 7",0.43 ± 0.31%
same,Neutrophils,"[1]; mean ± SD, n = 7",6.20 ± 6.33%
same,Platelets,"[1]; mean ± SD, n = 7",1191 ± 186.77 103/µL
same,Red cells,"[1]; mean ± SD, n = 7",5.01 ± 1.43 106/µL
same,Triglycerides,"[1]; mean ± SD, n = 7",145.10 ± 38.6 mg/dL
same,White cells,"[1]; mean ± SD, n = 7",4.83 ± 0.70 103/μL
same,bioavailability after oral administration,[2],not be bioavailable after oral administration
same,first pass hepatic metabolism,[2],extensive first pass hepatic metabolism
same,efficacy in the model of intestinal tumorigenesis,"[3]; 30 mg/kg oral every other day, 8 weeks",the only compound to show positive results
same,"Ileum Adenomas, Mean (number)","[3]; 30 mg/kg oral every other day, 8 weeks, n = 7, CTR 13.14",7.57 ± 2.07 and 7.57
same,"Overall Intestine Adenomas, Mean (number)","[3]; 30 mg/kg oral every other day, 8 weeks, n = 7, CTR 19.71",14.00
same,reduction of the formation of adenomas in the ileum,"[3]; 30 mg/kg oral, 8 weeks, vs control",1.6 times
same,mean adenoma diameter in the ileum,"[3]; 30 mg/kg oral, ± 0.28 (SD), control 0.94 mm ± 0.39 (SD)",0.71 mm
same,number of medium adenomas (1 to 1.5 mm) in the ileum,"[3]; 30 mg/kg oral, ± SD, CTR 29 ± 2.5",11 ± 1.3
same,"Percentage of adenomas, class Large (1.5 to 2 mm)",[3]; [4],0%
same,"Percentage of adenomas, class Medium (1 to 1.5 mm)",[3]; [4],21%
same,"Percentage of adenomas, class Small (0.5 to 1 mm)",[3]; [4],51%
same,"Percentage of adenomas, class Very Large (> 2 mm)",[3]; [4],0%
same,"Percentage of adenomas, class Very Small (< 0.5 mm)",[3]; [4],28%
